Laboratory results taken from patent publication US4552872A, “Penetrating topical pharmaceutical compositions containing corticosteroids” (priority 1984, dated 1985).

Experiments:
dermatitis = assay: Topical treatment of dermatitis in a human, composition of Example 32; type: in vivo; conditions: 5 mg/cm^2 of skin three times daily for five days; noted after 48 hours
Description: The above composition is applied at the afflicted situs of a human afflicted with dermatitis at a rate of 5 mg of composition/cm^2 of skin three times daily for a period of five days.

[1] = Percutaneous penetration study, Franz diffusion apparatus, human skin (*); type: in vitro ADME; conditions: Example 8; for reduction of penetration on addition of the proscribed compound, in words: compared with octanoic acid (reduces penetration by 50%)
Description: The following Penetration Studies were carried out in the following manner. […] A normal saline solution is added to the lower diffusion cell, abutting the subcutaneous side of the skin. The test composition (comprising a solution of active or actives added to the carrier at the indicated formulation in a conventional manner by thoroughly mixing) is added to the diffusion cell abutting the epidermal side of the skin at the levels indicated.
This cell assembly is kept at a constant temperature of about 31° C. At appropriate or desired intervals (these are the time designations given in the following examples) each diffusion cell assembly is opened and the diffusate from the cell abutting the subcutaneous side of the skin is withdrawn. Drug actives in a diffusate is measured using standard analytical techniques. Each trial is run on a separate sample of skin.
All ratios represented by A/B, or A/B/C, and all percentages, are by weight. The compounds described as C12-18 OH are the straight chain, saturated, normal alcohols. EtOH is ethanol. The term mcg=microgram.

[2] = compared with hydrocortisone; cited from earlier work

Structure (SMILES)	reduction of inflammation (dermatitis)	reduction of penetration on addition of the proscribed compound, in words [1]	also measured
CC1(C)O[C@@H]2C[C@H]3[C@@H]4C[C@H](F)C5=CC(=O)C=C[C@]5(C)[C@@]4(F)[C@@H](O)C[C@]3(C)[C@]2(C(=O)CO)O1 [fluocinolone, acetonide, Fluocinolone acetonide]	Substantially similar results	–	–
CCCCCCCCCCCCCCCCO [cetyl alcohol]	–	Substantially similar results	–
CC1(C)O[C@@H]2C[C@H]3[C@@H]4CCC5=CC(=O)C=C[C@]5(C)[C@@]4(F)[C@@H](O)C[C@]3(C)[C@]2(C(=O)CO)O1 [triamcinolone, Triamcinolone acetonide]	Substantially similar results	–	–
CCCCCCCCCC(=O)O [decanoic acid]	–	Substantially similar results	–
CCCCCCCCCCCCCCCCCCO [stearyl alcohol]	–	Substantially similar results	–
CCCCC(=O)O[C@]1(C(=O)CO)[C@@H](C)C[C@H]2[C@@H]3CCC4=CC(=O)C=C[C@]4(C)[C@@]3(F)[C@@H](O)C[C@@]21C [betamethasone valerate]	Substantially similar results	–	–
CCCCCCCC(=O)O [octanoic acid]	–	–	reduction of penetration on addition of the proscribed compound ([1]; 1% Triamcinolone in Propylene Glycol + 2% C14 OH, human skin, 0-72 hrs.): 50%
C[C@]12C=CC(=O)C=C1CC[C@@H]1[C@@H]2[C@@H](O)C[C@@]2(C)[C@H]1CC[C@]2(O)C(=O)CO [prednisolone]	–	–	change of mineralocorticoid effects by introduction of a double bond at the 1,2 position into hydrocortisone [2]: reducing mineralo corticoid effects
COc1c(C(=O)OCC(=O)[C@@]23OC(C)(C)O[C@@H]2C[C@H]2[C@@H]4CCC5=CC(=O)C=C[C@]5(C)[C@@]4(F)[C@@H](O)C[C@@]23C)cc2ccccc2c1Cc1c(OC)c(C(=O)OCC(=O)[C@@]23OC(C)(C)O[C@@H]2C[C@H]2[C@@H]4CCC5=CC(=O)C=C[C@]5(C)[C@@]4(F)[C@@H](O)C[C@@]23C)cc2ccccc12 [flupamesone]	Substantially similar results	–	–
